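Values below derive from 48-hour exposures of cells grown in 96-well plates, with endpoints linearly interpolated between the two concentrations bracketing the appropriate inhibition level. TGI: total growth inhibition.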
Legend:
Assay in all cases: DTP human tumour cell line panel, 48 h
[1] = test system: A549 NSCLC
[2] = test system: HT29 colon
[3] = test system: MDA-MB-231 breast
[4] = test system: UO-31 renal
[5] = test system: M14 melanoma
[6] = test system: OVCAR-5 ovarian
[7] = test system: COLO 205 colon
[8] = test system: NCI-H23 lung
[9] = test system: BT-549 breast
[10] = test system: SN12C renal
[11] = test system: HCT-15 colon
[12] = test system: U251 CNS
[13] = test system: OVCAR-4 ovarian
[14] = test system: UACC-257 melanoma
[15] = test system: MOLT-4 leukemia
[16] = test system: SNB-19 CNS
[17] = test system: TK-10 renal
[18] = test system: MALME-3M melanoma
[19] = test system: SF-295 CNS
[20] = test system: RPMI-8226 leukemia
[21] = test system: CCRF-CEM leukemia
[22] = test system: NCI-H460 lung
[23] = test system: DU-145 prostate
[24] = test system: HL-60(TB) leukemia
[25] = test system: CAKI-1 renal
[26] = test system: 786-0 renal
[27] = test system: SK-MEL-5 melanoma
[28] = test system: HOP-92 NSCLC
[29] = test system: HOP-62 NSCLC
[30] = test system: KM12 colon
[31] = test system: ACHN renal
[32] = test system: PC-3 prostate
[33] = test system: HCC-2998 colon
[34] = test system: EKVX NSCLC
[35] = test system: NCI/ADR-RES ovarian
[36] = test system: OVCAR-8 ovarian
[37] = test system: HCT-116 colon
[38] = test system: K-562 leukemia
[39] = test system: SK-MEL-2 melanoma
[40] = test system: SR leukemia
[41] = test system: OVCAR-3 ovarian
[42] = test system: SK-MEL-28 melanoma
[43] = test system: MCF7 breast
[44] = test system: LOX IMVI melanoma
[45] = test system: MDA-MB-435
[46] = test system: MDA-N
[47] = test system: T-47D breast
[48] = test system: HS 578T breast
[49] = test system: IGROV1 ovarian
[50] = test system: NCI-H522 lung
[51] = test system: SNB-75 CNS
[52] = test system: SF-539 CNS
[53] = test system: SF-268 CNS
[54] = test system: SW-620 colon
[55] = test system: NCI-H226 lung
[56] = test system: RXF 393 renal
[57] = test system: SK-OV-3 ovarian

Question: Which results are given for O=c1[nH]nc(Nc2ccccc2)c2nnn(C3CCCCC3)c12?
Answer: TGI [1]: > 100 µM; TGI [2]: > 100 µM; TGI [3]: > 100 µM; TGI [4]: > 100 µM; TGI [5]: > 100 µM; TGI [6]: > 100 µM; TGI [7]: > 100 µM; TGI [8]: > 100 µM; TGI [9]: > 100 µM; TGI [10]: > 100 µM; TGI [11]: > 100 µM; TGI [12]: > 100 µM; TGI [13]: > 100 µM; TGI [14]: > 100 µM; TGI [15]: > 100 µM; TGI [16]: > 100 µM; TGI [17]: > 100 µM; TGI [18]: > 100 µM; TGI [19]: > 100 µM; TGI [20]: > 100 µM; TGI [21]: > 100 µM; TGI [22]: > 100 µM; TGI [23]: > 100 µM; TGI [24]: > 100 µM; TGI [25]: > 100 µM; TGI [26]: > 100 µM; TGI [27]: > 100 µM; TGI [28]: > 100 µM; TGI [29]: > 100 µM; TGI [30]: > 100 µM; TGI [31]: > 100 µM; TGI [32]: > 100 µM; TGI [33]: > 100 µM; TGI [34]: > 100 µM; TGI [35]: > 100 µM; TGI [36]: > 100 µM; TGI [37]: > 100 µM; TGI [38]: > 100 µM; TGI [39]: > 100 µM; TGI [40]: > 100 µM; TGI [41]: > 100 µM; TGI [42]: > 100 µM; TGI [43]: > 100 µM; TGI [44]: > 100 µM; TGI [45]: > 100 µM; TGI [46]: > 100 µM

Question: O=C(c1cccnc1)N1N=C(c2ccccc2)CC1(O)c1cc(F)c(Cl)cc1Cl (stereo unspecified) was tested. Which TGI [1] did it give?
Answer: > 100 µM

Question: And the TGI [47]?
Answer: 62.4 µM

Question: And the TGI [2]?
Answer: > 100 µM

Question: And the TGI [48]?
Answer: 79.5 µM

Question: And the TGI [3]?
Answer: 35.4 µM

Question: And the TGI [4]?
Answer: > 100 µM

Question: What about the TGI [49] of the same compound?
Answer: 59.9 µM

Question: What about the TGI [5] of the same compound?
Answer: 53.7 µM

Question: And the TGI [50]?
Answer: > 100 µM

Question: And the TGI [6]?
Answer: > 100 µM

Question: What about the TGI [7] of the same compound?
Answer: 31 µM

Question: What about the TGI [8] of the same compound?
Answer: > 100 µM

Question: And the TGI [9]?
Answer: 43.1 µM

Question: And the TGI [10]?
Answer: 39.6 µM

Question: And the TGI [11]?
Answer: 93.4 µM

Question: And the TGI [51]?
Answer: 52.9 µM

Question: What about the TGI [12] of the same compound?
Answer: 32.4 µM

Question: And the TGI [52]?
Answer: 32.3 µM

Question: And the TGI [13]?
Answer: > 100 µM

Question: And the TGI [14]?
Answer: 39.7 µM

Question: What about the TGI [15] of the same compound?
Answer: > 100 µM

Question: What about the TGI [16] of the same compound?
Answer: > 100 µM

Question: And the TGI [17]?
Answer: > 100 µM

Question: And the TGI [53]?
Answer: > 100 µM

Question: What about the TGI [18] of the same compound?
Answer: 83 µM

Question: What about the TGI [19] of the same compound?
Answer: 36.9 µM

Question: What about the TGI [20] of the same compound?
Answer: 55.6 µM

Question: What about the TGI [21] of the same compound?
Answer: > 100 µM

Question: And the TGI [22]?
Answer: 44.7 µM

Question: And the TGI [23]?
Answer: > 100 µM

Question: What about the TGI [24] of the same compound?
Answer: 51.3 µM

Question: What about the TGI [54] of the same compound?
Answer: > 100 µM

Question: What about the TGI [25] of the same compound?
Answer: > 100 µM

Question: And the TGI [26]?
Answer: 53.6 µM

Question: And the TGI [27]?
Answer: 27.6 µM

Question: What about the TGI [28] of the same compound?
Answer: 59.5 µM

Question: What about the TGI [29] of the same compound?
Answer: 39.1 µM

Question: And the TGI [30]?
Answer: > 100 µM

Question: What about the TGI [31] of the same compound?
Answer: 58.5 µM

Question: And the TGI [32]?
Answer: 72.2 µM

Question: And the TGI [34]?
Answer: > 100 µM

Question: And the TGI [35]?
Answer: 83.7 µM

Question: And the TGI [36]?
Answer: > 100 µM

Question: And the TGI [37]?
Answer: 30.6 µM

Question: What about the TGI [38] of the same compound?
Answer: 80.4 µM

Question: What about the TGI [39] of the same compound?
Answer: 45.8 µM

Question: What about the TGI [40] of the same compound?
Answer: 67 µM

Question: What about the TGI [55] of the same compound?
Answer: 36.3 µM

Question: What about the TGI [41] of the same compound?
Answer: 24.5 µM

Question: What about the TGI [42] of the same compound?
Answer: 65.5 µM

Question: What about the TGI [44] of the same compound?
Answer: 30 µM

Question: What about the TGI [45] of the same compound?
Answer: > 100 µM

Question: And the TGI [56]?
Answer: 34.9 µM

Question: What about the TGI [57] of the same compound?
Answer: > 100 µM

Question: And the TGI [46]?
Answer: > 100 µM

Reference: PubChem BioAssay (NCI)
